What was measured:
COX-2 = biological target: T1, COX-2 (Ovis aries, UniProt P79208); assay: biochemical; settings: for Selectivity Index (COX-1 IC50/COX-2 IC50): in-vitro COX-2 selectivity index; for IC50: ovine COX-1/COX-2 assay kit, means of two determinations
T1 construct: purchased Cayman Chemical
T1 sequence (P79208 17-603): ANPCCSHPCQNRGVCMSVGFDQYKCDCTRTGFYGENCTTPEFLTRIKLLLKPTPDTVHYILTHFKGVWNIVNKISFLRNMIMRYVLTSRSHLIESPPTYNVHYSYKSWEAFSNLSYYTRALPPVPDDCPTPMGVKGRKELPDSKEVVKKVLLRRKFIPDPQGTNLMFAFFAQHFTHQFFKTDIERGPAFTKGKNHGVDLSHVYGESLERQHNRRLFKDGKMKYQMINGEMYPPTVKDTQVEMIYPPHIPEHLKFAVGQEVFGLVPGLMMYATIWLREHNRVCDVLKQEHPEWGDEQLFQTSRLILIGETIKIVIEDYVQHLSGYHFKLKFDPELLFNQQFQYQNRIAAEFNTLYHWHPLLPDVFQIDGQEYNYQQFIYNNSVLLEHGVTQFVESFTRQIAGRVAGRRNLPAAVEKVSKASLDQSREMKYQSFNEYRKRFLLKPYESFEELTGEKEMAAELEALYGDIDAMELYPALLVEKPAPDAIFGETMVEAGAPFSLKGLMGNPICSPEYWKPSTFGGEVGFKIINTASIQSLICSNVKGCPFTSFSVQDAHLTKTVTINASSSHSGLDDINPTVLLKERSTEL
Experimental: (§1) In-vitro cyclooxygenase (COX) inhibition assays
(§2) The assay was performed using an enzyme chemiluminescentkit (Cayman Chemical, MI, USA) according to our previously reportedmethod([17])The Cayman chemical chemiluminescent COX
(§3) (ovine) inhibitor screening assay utilizes the heme-catalyzedhydroperoxidase activity of ovine cyclooxygenases to generateluminescence in the presence of a cyclic naphthalene hydrazideand the substrate arachidonic acid. Arachidonate-induced luminescencewas shown to be an index of real-time catalytic activity anddemonstrated the turnover inactivation of the enzyme. Inhibition

COX-1 = biological target: T2, COX-1 (Ovis aries, UniProt P05979); assay: biochemical; settings: ovine COX-1/COX-2 assay kit; means of two determinations
T2 construct: purchased Cayman Chemical
T2 sequence (P05979 25-600): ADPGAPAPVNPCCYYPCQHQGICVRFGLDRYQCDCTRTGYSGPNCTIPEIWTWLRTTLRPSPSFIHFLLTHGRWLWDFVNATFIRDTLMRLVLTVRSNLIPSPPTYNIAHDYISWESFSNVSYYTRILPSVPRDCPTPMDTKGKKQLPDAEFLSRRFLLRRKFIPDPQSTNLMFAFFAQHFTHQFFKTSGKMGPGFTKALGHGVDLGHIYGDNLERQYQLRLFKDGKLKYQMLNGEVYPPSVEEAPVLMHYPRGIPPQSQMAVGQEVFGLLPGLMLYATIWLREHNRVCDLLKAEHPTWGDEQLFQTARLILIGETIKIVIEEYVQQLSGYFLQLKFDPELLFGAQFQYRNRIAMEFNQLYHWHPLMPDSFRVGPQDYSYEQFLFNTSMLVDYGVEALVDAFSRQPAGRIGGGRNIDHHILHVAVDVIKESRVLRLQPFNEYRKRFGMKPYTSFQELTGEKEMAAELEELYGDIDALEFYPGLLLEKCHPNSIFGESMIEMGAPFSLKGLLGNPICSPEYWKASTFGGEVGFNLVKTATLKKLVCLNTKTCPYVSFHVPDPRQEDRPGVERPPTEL
Experimental: as §1, §2, §3

T47D cells = assay: MTT cytotoxicity assay; type: cell-based, human; settings: for Survival (%) of T47D cells: MTT; for IC50: MTT assay, calculated after two days exposure
Experimental: (§4) The human breast cancer T47D and MCF-7 cell lines were obtained from Pasteur Institute Cell Bank of IRAN (Tehran, IRAN). Cells were maintained in RPMI-1640(Gibco, UK) culture medium supplemented with 10% fetal bovine serum (Gibco, UK) and 100 U Ml^-1 of penicillin and […] of streptomycin (Gibco, UK) at 37 C in 5% CO2 incubator. All reagent and chemicals used in this experiment were of cell culture or molecular biology grade, purchased from different international sources.
(§5) The MTT (3-[4, 5-dimethylthiazol-2-yl]-2,5-diphenyl tetrazolium bromide) based assay was performed by seeding 5000 cells (T47D and MCF-7) per 180 µL RPMI complete culture medium in each well of 96-well culture plates. The day after seeding, culture medium was changed with medium containing standard anti-tumor drug Doxorubicin as well as different concentrations of newly synthesized compounds and RPMI control (no drug). Cells were then incubated at 37 °C in 5% Co2 incubator for 48h and 72h. Then 25 µL of MTT solution (4mg Ml^-1) were added to each well and further incubated at 37 °C for 3h. At the end of incubation, formazan crystals were dissolved in 100 µL of DMSO and plates were read in a plate reader (TECAN, Austria) at 540 nm. This experiment was performed in triplicate determination each time ([18],[19]).

MCF-7 cells = assay: MTT cytotoxicity assay; type: cell-based, human; settings: for Survival (%) of MCF-7 cells: MTT; for IC50: Homo sapiens, MCF7, 48 h, MTT assay, calculated after two days exposure
Experimental: as §4, §5

Structure (SMILES)	Selectivity Index (COX-1 IC50/COX-2 IC50) (COX-2)	IC50 (COX-2) [µM]	IC50 (COX-1) [µM]	melting point [°C]	Survival (%) of T47D cells (T47D cells; 25 µM compound, 48 h exposure) [%]	Survival (%) of T47D cells (T47D cells; 25 µM compound, 72 h exposure) [%]	IC50 (T47D cells; Homo sapiens, T47D, 48 h) [µM]	IC50 (T47D cells) [µM]	Survival (%) of MCF-7 cells (MCF-7 cells; 10 µM compound, 48 h exposure) [%]	Survival (%) of MCF-7 cells (MCF-7 cells; 10 µM compound, 72 h exposure) [%]	IC50 (MCF-7 cells) [µM]	Survival (%) of T47D cells (T47D cells; doxorubicin at 100 nM, 48 h) [%]	Survival (%) of T47D cells (T47D cells; doxorubicin at 100 nM, 72 h) [%]	Survival (%) of MCF-7 cells (MCF-7 cells; doxorubicin at 250 nM (column head says 10 µM), 48 h) [%]	Survival (%) of MCF-7 cells (MCF-7 cells; doxorubicin at 250 nM (column head says 10 µM), 72 h) [%]
CS(=O)(=O)c1ccc(-c2cc(Cn3ccnc3)c3cccc(-c4ccccc4)c3n2)cc1 [Compound 9a, 4-((1H-Imidazol-1-yl)methyl)-2-(4-methylsulfonylphenyl)-8-phenyl-quinoline]	423.9	0.071	30.1	196 to 198	33.8	25.4	≤ 25	< 25	38.3	26.7	< 10	–	–	–	–
Cc1ccc2c(Cn3ccnc3)cc(-c3ccc(S(C)(=O)=O)cc3)nc2c1C [Compound 9b, 4-((1H-Imidazol-1-yl)methyl)-2-(4-methylsulfonylphenyl)-7,8-dimethyl-quinoline]	288.9	0.09	26	218 to 219	66.2	69.5	50	–	61	47.2	–	–	–	–	–
CS(=O)(=O)c1ccc(-c2cc(Cn3ccnc3)c3ccc4ccccc4c3n2)cc1 [Compound 9c, 4-((1H-Imidazol-1-yl)methyl)-2-(4-methylsulfonylphenyl)-benzo[h]-quinoline]	527.9	0.068	35.9	216 to 217	75.8	68.9	50	–	48.4	41.3	10	–	–	–	–
CS(=O)(=O)c1ccc(-c2cc(Cn3ccnc3)c3ccc4c(c3n2)CCCC4)cc1 [Compound 9d, 4-((1H-Imidazol-1-yl)methyl)-7,8,9,10-tetrahydro-2-(4-methylsulfonylphenyl)-benzo[h]-quinoline]	547.6	0.063	34.5	247 to 248	49.1	26.1	25	–	4	0.7	< 5	–	–	–	–
CS(=O)(=O)c1ccc(-c2cc(Cn3ccnc3)c3ccccc3n2)cc1 [Compound 9e, 4-((1H-Imidazol-1-yl)methyl)-2-(4-methylsulfonylphenyl)-quinoline]	179.9	0.072	13	189 to 190	47.4	47.5	50	25	67.2	58.2	–	–	–	–	–
COc1cccc2c1C(=O)c1c(O)c3c(c(O)c1C2=O)C[C@@](O)(C(=O)CO)C[C@@H]3O[C@H]1C[C@H](N)[C@H](O)[C@H](C)O1 [Doxorubicin, reference compound]	–	–	–	–	–	–	0.1	–	–	–	0.25	53.2	27.1	50.2	31.7
